{"source": "ChEMBL document CHEMBL1629629", "about": "“Reassessment of recommended imipenem doses in febrile neutropenic patients with hematological malignancies” (Antimicrob Agents Chemother, 2009)", "key": {"[1]": {"assay": "T>MIC in febrile neutropenic patient with hematological malignancies at 500 mg administered as infusion every 4 hrs", "format": "functional, Homo sapiens"}, "[2]": {"assay": "Cmax in febrile neutropenic patient with hematological malignancies at 500 mg administered as 30 mins infusion every 6 hrs", "format": "ADME, organism-based", "set-up": "dose 500 mg", "conditions": "human, in vivo, iv"}, "[3]": {"assay": "Renal clearance in febrile neutropenic patient with hematological malignancies at 500 mg administered as 30 mins infusion every 6 hrs", "format": "ADME, organism-based, Kidney", "conditions": "human, in vivo, iv, read-out: CL_renal (converted)"}, "[4]": {"assay": "Elimination half life in febrile neutropenic patient with hematological malignancies at 500 mg administered as 30 mins infusion every 6 hrs", "format": "ADME, organism-based", "conditions": "human, in vivo, iv"}, "Homo sapiens [5]": {"test_system": "Homo sapiens", "assay": "T>MIC in febrile neutropenic patient with hematological malignancies at 500 mg administered as infusion every 6 hrs", "format": "functional"}, "Homo sapiens [6]": {"test_system": "Homo sapiens", "assay": "T>MIC in febrile neutropenic patient with hematological malignancies at 500 mg administered as 30 mins infusion every 6 hrs", "format": "functional"}, "Homo sapiens [7]": {"species": "Homo sapiens", "assay": "T>MIC in febrile neutropenic patient with hematological malignancies at 6 g/day"}, "Homo sapiens [8]": {"test_system": "Homo sapiens", "assay": "T>MIC in febrile neutropenic patient with hematological malignancies at 750 mg administered as 120 mins infusion every 6 hrs", "format": "functional"}, "Enterococcus": {"test_system": "Enterococcus", "assay": "Antimicrobial activity against Enterococcus", "format": "functional"}, "Pseudomonas aeruginosa": {"test_system": "Pseudomonas aeruginosa", "assay": "Antimicrobial activity against Pseudomonas aeruginosa", "format": "functional"}}, "data": [{"smiles": "C[C@@H](O)[C@H]1C(=O)N2C(C(=O)O)=C(SCCNC=N)C[C@H]12", "note": "[IMIPENEM ANHYDROUS]", "values": [{"measurement": "fT>MIC", "setting": "[1]", "result": 73, "unit": "%"}, {"measurement": "Cmax", "setting": "[2]", "result": 6600, "unit": "ng/mL"}, {"measurement": "CL renal", "setting": "[3]", "result": 79.8, "unit": "mL/min"}, {"measurement": "half-life", "setting": "[4]", "result": 1.43, "unit": "h"}, {"measurement": "fT>MIC", "setting": "Homo sapiens [5]", "result": 18, "unit": "%"}, {"measurement": "fT>MIC", "setting": "Homo sapiens [6]", "result": 53, "unit": "%"}, {"measurement": "fT>MIC", "setting": "Homo sapiens [7]", "result": 90, "unit": "%"}, {"measurement": "fT>MIC", "setting": "Homo sapiens [8]", "result": 58, "unit": "%"}, {"measurement": "MIC90", "setting": "Enterococcus", "result": 2, "unit": "µg/mL"}, {"measurement": "MIC90", "setting": "Pseudomonas aeruginosa", "result": 2, "unit": "µg/mL"}]}]}
